Reference: patent US20260060907A1, “GADUSOL-CONTAINING SUNSCREEN FORMULATIONS” (ARCAEA, LLC, priority 2022, published 2026)

How the values were obtained:
erythrocytes = assay: Cell-based antioxidant protection in erythrocytes (CAP-e) assay; settings: for lysis of the cells: highest dose (3.3 mg/ml), erythrocytes
Experimental: The cell-based antioxidant protection in erythrocytes (CAP-e) assay (Honzel et. al., 2008, and Jensen GS. Cell-based antioxidant protection assay, also disclosed in U.S. Pat. No. 8,465,988, incorporated herein in its entirety by this reference) was used. This testing was selected to measure antioxidant power but, in addition, the method ensures that the antioxidant agent crosses the cell's lipid boundary layer so that only intracytoplasmic activity is measured. […] The tested concentrations for both gadusol and the Porphyra-334 ranged from 0.001 to 3.33 mg/mL.

[1] = In vivo SPF determination (FDA 21 CFR 201.327 SPF test procedure); set-up: species or system human
Experimental: An in vivo SPF determination was conducted according to FDA, 21 CFR Sec. 201.327, subpart (i), SPF Test Procedure, Sunscreen Drug Products for Over-the-Counter Human Use, Final Monograph, Federal Register, Vol. 76, No. 117, Jun. 17, 2011, the disclosure of which is incorporated herein in its entirety by this reference. Each in vivo test for a sunscreen formulation was tested on three different subjects.
For subject enrollment, the test subjects reported to the testing laboratory and received a complete explanation of the study procedures. Those who participated signed a written, witnessed consent form, and a permission to release personal health information form and provided a brief medical history. The technician did a final examination of the subject's back, between the belt-line and shoulder blades and determined their suitability to participate in this study.
A Xenon Arc Solar Simulator lamp, which has a continuous light spectrum in the UVA and UVB range (290-400 nanometers) was utilized for the in vivo light source. The spectral output of the solar simulator was filtered so that it meets the spectral output requirements for testing Sunscreen Drug Products for over-the-counter human use; FDA Final Monograph, 21 CFR Part 201.327 (i)(1), UV Source, Federal Register, Vol. 76, No. 117, Jun. 17, 2011 and the International Sun Protection Factor (SPF) Test Method, May 2006, the disclosure of which is incorporated herein in its entirety by this reference.
For a baseline value, a series of 5 UV radiation doses expressed as Joules/square meter, increasing in 25% increments, was administered to two unprotected separate locations on each test subject's back, just below the shoulder blades and above the belt-line, to determine the initial unprotected MED (MEDu).
The MEDu was administered in the following 5 dose series, with X representing the amount of UV energy projected to produce the test subject's MEDu (Table C).
On Day 2, subjects returned to the testing laboratory within 16 to 24 hours following completion of the MEDu doses for evaluation of their responses, and to determine each subject's unprotected MED (MEDu). A subject's Minimal Erythemal Dose (MED) was the quantity of erythema effective energy, or dose corresponding to the first site that produced the first unambiguous erythema reaction with well-defined borders. The following grading scale used in this study for determining a MED (+) response. • − No perceptible erythemal response • ? […]
MEDp UV Dose was administered by the technician via a series of 5 UV radiation doses expressed as Joules/square meter, as specified in FDA, 21 CFR, Sec. […]

[2] = In vitro SPF determination on VitroSkin substrate (Labsphere UV-1000, absorbance 290-400 nm); assay type: physicochemical
Experimental: SPF was also evaluated using an in vitro method that utilizes a synthetic/simulated skin as a test substrate. In this regard, VitroSkin® is an advanced testing substrate that effectively mimics the surface properties of human skin. It has been formulated to have topography, pH, critical surface tension, chemical reactivity and ionic strength that is similar to human skin. The procedure for in vitro testing was conducted according to a standard protocol. For testing, the test product was applied in a known amount to the substrate at an application density of 2 mg/cm^2. The in vitro SPF scores were determined using a Labsphere UV-1000 Ultraviolet Transmittance Analyzer. Spectral scans of absorbance of the artificial skin treated with a sample sunscreen formulation were performed in the UV region of 290-400 nm. The in vitro SPF was then calculated using the absorbance scan results. At least 5 in vitro SPF values were recorded for each example formulation and the averages calculated for reporting.
In another example, gadusol was tested by the in vitro method using the Vitroskin substrate in the methodology discussed above. The COS1 formulation having 0.0 and 0.5% (w/w) gadusol and the COS2 formulations were tested with 0, 0.25, 0.5% (w/w) gadusol.

Vero E6 fibroblasts = assay type: cell-based
Text: (§1) The amount of gadusol incorporated to provide the intended in vivo sunscreen SPF boosting activity can be from about 0.25, 0.50, 0.75, 1.0, 1.25, 1.50, 1.75, or 2.0% (w/w) in the sunscreen formulation that includes a physical/inorganic sunscreen active material, where any value can form an upper or lower endpoint, as appropriate. Still further, the amount of gadusol in the sunscreen formulation can be from about 0.25 to 2.0% (w/w), or from about 0.5 to 1.0% (w/w). In these, and possibly other amounts, gadusol suitably can provide a safe and effective sunscreen boosting effect when combined with sunscreen active ingredients. […] To summarize these safety tests, the cellular toxicity of gadusol was compared to that of a common sunscreen ingredient, oxybenzone. Vero E6 fibroblasts were used to evaluate toxicity. […] Toxicity towards E. coli was also not found.

Ames Test = assay type: cell-based
Text: as §1

Comet assay = assay type: cell-based
Text: as §1

E. coli = assay: Toxicity towards E. coli; assay type: cell-based
Text: as §1

[3] = Stability of aqueous gadusol under acidic conditions (spectrophotometric at 296 nm); assay type: physicochemical; settings: after 90 days at pH 2.5
Experimental: (§2) Yet further, the inventors have determined that the stability of aqueous gadusol can be improved when stored under acidic conditions. For example, 90% gadusol activity can be retained after 90 days at pH 2.5, where the concentration of gadusol is determined spectrophotometrically at 296 nm where it has an extinction coefficient of 21,800 M^−1 cm^−1. A standardized concentration curve can be used to determine an amount of gadusol in a volume sampled from a test solution at various time periods. Therefore, storage under acidic conditions may be useful for stabilizing gadusol generally, e.g., prior to introduction into a topical formulation. Combining gadusol with another antioxidant may be useful for extending the shelf life or stability of gadusol in a topical formulation.

[4] = UV absorbance of the compounds; assay type: physicochemical; settings: at 296 nm
Experimental: as §2

[5] = Folin-Ciocalteu antioxidant capacity; assay type: biochemical; settings: concentrations ranging from about 0.3 to 10 mg/ml

| Structure (SMILES) | effect on the protective action of gadusol (CAP-e) (erythrocytes; gadusol and Porphyra-334 combined) | lysis of the cells (erythrocytes) | in vivo SPF, times the SPF conferred by 10% ZnO alone ([1]; 0.5% gadusol (w/w) with 10% ZnO) | in vivo SPF, times the SPF conferred by 10% ZnO alone ([1]; 0.75% gadusol (w/w) with 10% ZnO) | in vivo SPF, times the SPF conferred by 10% ZnO alone ([1]; 1.0% gadusol (w/w) with 10% ZnO) | SPF boost ([1]; gadusol 0.5 to 1% (w/w) in formulation containing 10% ZnO) | greater in vitro SPF when added to a composition containing 10% ZnO ([2]; 0.5% (w/w) gadusol) | in vitro absorbance on addition to a 10% ZnO sunscreen formulation ([2]; 0.5% gadusol, from about 290 to about 325 nm, FIG. 6) | in vitro SPF activity of gadusol by itself ([2]; activity of the formulation matrix (1.1) subtracted) | cellular toxicity compared to oxybenzone (Vero E6 fibroblasts) | mutagenicity in the Ames Test (Ames Test) | toxicity in the comet assay (Comet assay) | Toxicity towards E. coli (E. coli) | gadusol activity retained [3] | extinction coefficient [4] | antioxidant power (Folin-Ciocalteu) [5] | antioxidant activity (CAP-e) (erythrocytes; at 0.133 mg/ml) | antioxidant activity (CAP-e) compared with Porphyra-334 (erythrocytes; at about 1 mg/ml) |
| --- | --- | --- | --- | --- | --- | --- | --- | --- | --- | --- | --- | --- | --- | --- | --- | --- | --- | --- |
| COC1=C(NCC(=O)O)C[C@@](O)(CO)CC1=N[C@H](C(=O)O)[C@@H](C)O [Porphyra-334, reference compound] | did not interfere with the protective action of the gadusol | caused some lysis of the cells | – | – | – | – | – | – | – | – | – | – | – | – | – | – | – | – |
| COC1=C(O)CC(O)(CO)C(O)C1=O (stereo not shown) [gadusol] | – | caused some lysis of the cells | about 1.35 times | ~1.51 times | ~2.0 times | 135 to 200% | ~50% | significantly more absorbance | 2.5-2.8 SPF units | less toxic than oxybenzone | not to be mutagenic | nor was it toxic | not found | 90% | 21,800 M^−1 cm^−1 | substantially equivalent to a mycosporine compound from “nori” seaweed | Some in vivo antioxidant activity was seen | significantly more active antioxidant |
